How the values were obtained:
Format in all cases: cell-based, human
[1] = tested on: T-47D breast cancer cells; experiment: Cell viability assay (MTT), T-47D; conditions: 72 hrs treatment, 1 to 10 μM tested, ± SD, read-out: Observed IC50 for T-47D breast cancer cells
Method: Experiments were performed using different cancer cell-lines, which were supplied by the American Type Culture Collection (ATCC), Rockville, Md., USA, and maintained in the recommended culturing media. […] All test samples were dissolved in absolute ethanol and serial diluted to the testing concentrations. For blank sample, absoluted ethanol was used. The final organic solvent content for all cell assays were less than or equal to 0.1%. The cell viability assay was conducted by using the method described by J. Carmichael, et al in Cancer Research 47:936 (1987). All the cells were seeded into 96-well microtitre plates and incubated at 37° C. under 5% CO2 atmosphere. For MCF7, T-47D and WS1, 3000 cells/100 μl/well were used and for HeLa, 1000 cells/100 μl/well were used. […] After additional 72 hours of incubation at 37° C. under 5% CO2 atmosphere, the cell were then collected and evaluated using MTT assay to assess the cell viability by using the method mentioned above. […] Cultures containing 3000 cells per well were treated with 0, 1, 2.5, 5 and 10 μM (final concentration) of the test samples and the viable cells were counted after 72 hrs. […] In both FIG. 1 and FIG. 2, error bars are indicated the estimated standard deviation based on three experiments.

[2] = tested on: HeLa cervical cancer cells; experiment: Cell viability assay (MTT), HeLa; conditions: for IC50: 72 hrs treatment, 1 to 10 μM tested, MTT, ± SD, read-out: Observed IC50 for HeLa cervial cancer cells
Method: (§1) Experiments were performed using different cancer cell-lines, which were supplied by the American Type Culture Collection (ATCC), Rockville, Md., USA, and maintained in the recommended culturing media. The detailed steps and condition for cell culture are described as the following: HeLa, humen cervical adenocarcinoma: Minimum essential medium (Eagle) with 2 mM L-glutamine and Earle's BSS adjusted to contain 1.5 g/L sodium bicarbonate, 0.1 mM non-essential amino acids and 1.0 mM sodium pyruvate and supplemented with 0.01 mg/ml insulin, 90%; fetal bovine serum, 10%. […] All test samples were dissolved in absolute ethanol and serial diluted to the testing concentrations. For blank sample, absoluted ethanol was used. The final organic solvent content for all cell assays were less than or equal to 0.1%. The cell viability assay was conducted by using the method described by J. Carmichael, et al in Cancer Research 47:936 (1987). All the cells were seeded into 96-well microtitre plates and incubated at 37° C. under 5% CO2 atmosphere. For MCF7, T-47D and WS1, 3000 cells/100 μl/well were used and for HeLa, 1000 cells/100 μl/well were used. […] After additional 72 hours of incubation at 37° C. under 5% CO2 atmosphere, the cell were then collected and evaluated using MTT assay to assess the cell viability by using the method mentioned above. Error bars are indicated the estimated standard deviation based on three experiments.

MCF7 breast cancer cells = experiment: Cell viability assay (MTT), MCF7; conditions: for IC50: 72 hrs treatment, 1 to 10 μM tested, MTT, ± SD, read-out: Observed IC50 for MCF7 breast cancer cells
Method: as §1, with “MCF7, human breast” for “HeLa, humen cervical”, “[…] Cultures containing 3000 cells per well were treated with 0, 1, 2.5, 5 and 10 μM (final concentration) of the test samples and the viable cells were counted after 72 hrs. […] In both FIG. 1 and FIG. 2, error” for “Error”

IC50 [1] [µM]	IC50 [2] [µM]	IC50 (MCF7 breast cancer cells) [µM]	Compound	IC50 value compared with tamoxifen, MCF7 (MCF7 breast cancer cells; statement in words)	IC50 value compared with tamoxifen, HeLa ([2]; statement in words)
3.99 ± 0.58	5.88 ± 0.42	7.06 ± 0.83	CCc1c(Cl)c(O)c(Cl)c(O)c1C(=O)O[C@@H]1[C@@H](O)[C@@H](OC)[C@@H](OC/C2=C\C=C\CC(O)/C(C)=C/C(CC)C(O[C@@H]3OC(C)(C)[C@H]4OC(c5ccccc5C)O[C@@H]4[C@@H]3OC(=O)C(C)C)/C(C)=C/C(C)=C/CC(C(C)O)OC2=O)O[C@H]1C (some centres unmarked) [TB1, 2-methylbenzylidene acetal]		
4.99 ± 0.22	5.99 ± 0.45	7.09 ± 0.54	CCc1c(Cl)c(O)c(Cl)c(O)c1C(=O)O[C@@H]1[C@@H](O)[C@@H](OC)[C@@H](OC/C2=C\C=C\CC(O)/C(C)=C/C(CC)C(O[C@@H]3OC(C)(C)[C@H]4OC(c5cccc(OC)c5)O[C@@H]4[C@@H]3OC(=O)C(C)C)/C(C)=C/C(C)=C/CC(C(C)O)OC2=O)O[C@H]1C (some centres unmarked) [TB3, 3-methoxylbenzylidene acetal]		
5.66 ± 0.62	5.69 ± 0.24	6.81 ± 0.01	CCc1c(Cl)c(O)c(Cl)c(O)c1C(=O)O[C@@H]1[C@@H](O)[C@@H](OC)[C@@H](OC/C2=C\C=C\CC(O)/C(C)=C/C(CC)C(O[C@@H]3OC(C)(C)[C@H]4OC(c5ccccc5Cl)O[C@@H]4[C@@H]3OC(=O)C(C)C)/C(C)=C/C(C)=C/CC(C(C)O)OC2=O)O[C@H]1C (some centres unmarked) [TB4, 2-chlorobenzylidene acetal]		
4.66 ± 0.57	5.6 ± 0.37	5.95 ± 0.46	CCc1c(Cl)c(O)c(Cl)c(O)c1C(=O)O[C@@H]1[C@@H](O)[C@@H](OC)[C@@H](OC/C2=C\C=C\CC(O)/C(C)=C/C(CC)C(O[C@@H]3OC(C)(C)[C@H]4OC(c5ccccc5C(F)(F)F)O[C@@H]4[C@@H]3OC(=O)C(C)C)/C(C)=C/C(C)=C/CC(C(C)O)OC2=O)O[C@H]1C (some centres unmarked) [TB5, 2-trifluoromethylbenzylidene acetal]		
4.8 ± 0.46	5.3 ± 0.49	6.19 ± 0.68	CCc1c(Cl)c(O)c(Cl)c(O)c1C(=O)O[C@@H]1[C@@H](O)[C@@H](OC)[C@@H](OC/C2=C\C=C\CC(O)/C(C)=C/C(CC)C(O[C@@H]3OC(C)(C)[C@H]4OC(c5ccc(N(CC)CC)cc5OC)O[C@@H]4[C@@H]3OC(=O)C(C)C)/C(C)=C/C(C)=C/CC(C(C)O)OC2=O)O[C@H]1C (some centres unmarked) [TB7, 4-N,N-diethylamino-2-methoxybenzylidene acetal]		
4.04 ± 1.09	5.76 ± 0.32	5.78 ± 0.81	CCc1c(Cl)c(O)c(Cl)c(O)c1C(=O)O[C@@H]1[C@@H](O)[C@@H](OC)[C@@H](OC/C2=C\C=C\CC(O)/C(C)=C/C(CC)C(O[C@@H]3OC(C)(C)[C@H]4OC(c5cc(C(C)(C)C)c(O)c(C(C)(C)C)c5)O[C@@H]4[C@@H]3OC(=O)C(C)C)/C(C)=C/C(C)=C/CC(C(C)O)OC2=O)O[C@H]1C (some centres unmarked) [TB8, 4,5-tert-dibutyl-4-hydroxybenzylidene acetal]		
5.56 ± 0.57	8.54 ± 1.03	8.39 ± 1	tiacumicin B [tiacumicin B (TB), reference compound]		

Compound	IC50 [1] [µM]	IC50 [2] [µM]	IC50 (MCF7 breast cancer cells) [µM]	IC50 value compared with tamoxifen, MCF7 (MCF7 breast cancer cells; statement in words)	IC50 value compared with tamoxifen, HeLa ([2]; statement in words)
CCc1c(Cl)c(O)c(Cl)c(O)c1C(=O)O[C@@H]1[C@@H](O)[C@@H](OC)[C@@H](OC/C2=C\C=C\CC(O)/C(C)=C/C(CC)C(O[C@@H]3OC(C)(C)[C@H]4OC(c5cccc(O)c5)O[C@@H]4[C@@H]3OC(=O)C(C)C)/C(C)=C/C(C)=C/CC(C(C)O)OC2=O)O[C@H]1C (some centres unmarked) [TB2, 3-hydroxylbenzylidene acetal]	4.24 ± 0.05	5.98 ± 0.22	6.9 ± 0.36	superior to that of tamoxifen	
CCc1c(Cl)c(O)c(Cl)c(O)c1C(=O)O[C@@H]1[C@@H](O)[C@@H](OC)[C@@H](OC/C2=C\C=C\CC(O)/C(C)=C/C(CC)C(O[C@@H]3OC(C)(C)[C@H]4OC(c5ccc(N(CC)CC)cc5)O[C@@H]4[C@@H]3OC(=O)C(C)C)/C(C)=C/C(C)=C/CC(C(C)O)OC2=O)O[C@H]1C (some centres unmarked) [TB6, 4-N,N-diethylaminobenzylidene acetal]	4.77 ± 0.51	5.56 ± 0.13	5.98 ± 0.54		superior to that of tanoxifen
